Data from patent publication US20020114804A1, “A METHOD OF TREATING INFECTION OF SUTURES AND PROSTHETIC DEVICES” (priority 1996, published 2002).

Tests used:
Assay type in all cases: cell-based, human
[1] = tested on: PMNs; assay: PMN migration through fibrin gels in Boyden-type chemotaxis chambers
Method: (§1) Becton-Dickinson cell culture inserts (pore sizes 3 or 8 μm: Franklin Lakes, N.J.) were overlaid with the following proteins:
Fibrin gels: 1 Unit of thrombin (a gift from Dr. John Fenton, Albany Medical College, Albany, N.Y.), in 5 μl of PBS was added first to each insert. 0.1 ml phosphate buffered saline supplemented with Ca^2+ and Mg^2+ (PBS) containing 100 μg commercial grade fibrinogen (Calbiochem. Inc., San Diego, Calif.) or purified fibrinogen [a gift from Dr. Jeffery Weitz, (MacMaster University, Hamilton, On.)] was then placed into each 8.2 mm diameter insert on top of the thrombin. The mixture was incubated at 37° C. for 5 min to allow fibrin gel formation (determined by visual inspection). 1 Unit PPACK (Calbiochem Inc., San Diego, Calif.; 10^−5 M final concentration), in 100 μl medium was added to each insert to inhibit thrombin, and gels were washed with 250 μl PBS to remove inactivated thrombin. The fibrin gels formed were about 1 mm thick as measured under a dissecting microscope.
(§2) PMNs were prepared from fresh heparinized blood from healthy adult volunteers by sedimentation on Ficoll-Hypaque gradients. Contaminating red blood cells were removed by hypotonic lysis, as described (7). The purity of PMN isolated by this method is >95% as determined by Wright-Giemsa staining (7). 10^6 PMNs in 250 μl of PBS supplemented with 5.5 mM glucose and 0.1% human serum albumin (PBSG-HSA), were placed in the upper compartment of each insert and incubated for 0-6 hrs at 37° C. in a humidified atmosphere containing 95% air/5% CO2. At the times and concentrations specified, chemoattractants/cytokines were added to the top or bottom compartment in 250 μl of PBSG-HSA. At the end of the incubation, the chambers were shaken to dislodge PMNs from the lower surface of the inserts. The medium in each lower compartment was collected and its content of PMNs was determined using either a Coulter Counter or a hemocytometer. Both methods gave similar results. Counts are expressed as the average number of PMNs that migrated into the lower compartment. Unless otherwise indicated, all values reported are the average of six data points from at least 3 independent experiments.

[2] = tested on: PMNs; assay: PMN migration through gels of Matrigel or collagen IV; settings: added to the bottom chamber
Method: as §1
Collagen type IV and Matrigel matrices: 0.1 ml PBS containing 100 μg human placental collagen IV (Fluka Chemical Corp., Ronkonkoma, N.Y.), or 80 μg of reconstituted basement membrane proteins (Matrigel, Collaborative Research, Bedford, Mass.), was placed into each insert and allowed to gel at room temperature for 24 hrs.
as §2, with “At the end of the incubation, the chambers were shaken to dislodge PMNs from the lower surface of the inserts.” left out, “Both methods gave similar results.” left out, “Unless otherwise indicated, all values reported are the average of six data points from at least 3 independent experiments.” left out

[3] = tested on: PMNs; assay: PMN migration through filters coated with fibrinogen or fibronectin
Method: as §1
Fibrinogen or fibronectin: 0.1 ml of PBS containing 100 μg/ml fibrinogen or fibronectin (New York Blood Center, New York, N.Y.), was placed into each insert (pore size 3 μm). Inserts were incubated at 37° C. for 60 min and washed with 250 μl of PBS. Filters coated with fibrinogen or fibronectin were diffusely fluorescent as visualized by epifluorescent microscopy when incubated with the corresponding antibody [fluorescein-labeled anti-fibrinogen, or anti-fibronectin monoclonal antibodies (Cappel, Malvern, Pa.)], while uncoated filters, or filters incubated with fluorescein-labeled antibody of the opposite specificity, were not.
PMNs were prepared from fresh heparinized blood from healthy adult volunteers by sedimentation on Ficoll-Hypaque gradients. Contaminating red blood cells were removed by hypotonic lysis, as described (7). The purity of PMN isolated by this method is >95% as determined by Wright-Giemsa staining (7). […] The medium in each lower compartment was collected and its content of PMNs was determined using either a Coulter Counter or a hemocytometer. […] Counts are expressed as the average number of PMNs that migrated into the lower compartment. […]

[4] = tested on: PMNs; assay: Exclusion of rhodamine-labeled polyethylene glycol (Rh-PEG) from zones of adhesion of PMNs; settings: fMLP in combination with IL-8 or LTB4, fibrin
Method: Rh-PEG binds avidly to protein-coated surfaces, and can be detected easily by its fluorescence. Individual wells on glass microslides (Carlson Scientific, Peotone, Ill.) were coated with either fibrin, Matrigel or collagen IV in a manner similar to that for coating cell culture inserts except that 20 μl of the various solutions were used per well. 20 μl of PMNs (10^6 cells/ml in PBSG-HSA) were added to each well and PMNs were allowed to adhere for 15 mins at 37°. The cells were washed in PBS, fixed with 3.7% paraformaldehyde in PBS for 10 min, washed again with PBS, and further incubated with 10 kDa Rh-PEG at room temperature for 60 min. The preparation then was washed with PBS and immediately observed by phase and fluorescent microscopy at 400× magnification. Average values from three different experiments are reported as the percentage of PMNs that excluded Rh-PEG from zones of adherence between the cells and the underlying matrix.

[5] = tested on: monocytes; assay: Monocyte migration through Matrigel or Matrigel/tenascin coated filters; settings: for Inhibition of chemoattractant-stimulated monocyte migration: Matrigel-coated filters, depending on chemoattractant, human tenascin 5 μg
Text: Mononuclear cells were isolated by centrifugation of heparinized human blood on Ficoll-Hypaque gradients as described (65, 66). The mononuclear cell fraction was resuspended in RMPI 1640 medium supplemented with 10% pooled human serum or autologous serum and used immediately for monocyte migration studies. For some experiments, monocytes were obtained by centrifugation of whole blood or of white blood cells concentrated from a unit of blood (leukopak), on Nycodenz gradients as described (39). More than 90% of the nucleated cells obtained by this Nycodenz method were monocytes, as assessed by their ability to phagocytose IgG-coated red blood cells.
(§3) Cultured monocytes were prepared by allowing 10^7 total mononuclear cells, suspended in 10 ml of RMPI 1640 medium supplemented with 10% pooled human serum (1640+HS), or 10% autologous serum (1640+AS), to adhere to Falcon T-150 tissue culture Petri dishes for 2 h at 37° C. Non-adherent cells were removed by washing, leaving an adherent cell population consisting of greater than 98% monocytes as measured by their capacity to phagocytose IgG coated sheep red blood cells. For migration studies, monocytes were maintained in culture for 24 h in RPMI 1640+HS or AS, and detached from the dishes by gentle pipetting of 10 ml of ice cold phosphate buffered saline (without Ca^2+ or Mg^2+) containing 1.0 mM EDTA. The cells recovered were resuspended in RPMI-1640+HS as described (65).
(§4) Cell culture inserts containing polyethylene terephthalate filters, 8-μm pore size (Becton-Dickinson), were overlaid with 0.1 ml of Matrigel (20-25 μg protein/filter) (Collaborative Research, Bedford, Mass.), and incubated at room temperature until they dried. These Matrigel-coated filters were washed with phosphate buffered saline containing 1.0 mM Mg^2+ and 1.0 mM Ca^2+ (PBS). 0.1 ml of a PBS solution (pH 7.2) containing the indicated amount of purified chick brain tenascin was added to some of the inserts. The filters were incubated at room temperature until they dried. These protein-coated filters were washed again with PBS and used within 12 h for cell migration studies. To prepare collagen I-coated inserts, filters were coated with rat tail collagen I (ICN Biochemicals, Costa, Mesa, Calif.) (400 μg/ml in PBS), by adding 0.1 ml of this solution to an insert and incubating the inserts at room temperature for 24 h. Some of these collagen I-coated filters were then incubated with tenascin as described above.
Monocytes: Cell culture inserts were placed in 16 mm wells containing 0.5 mls of RPMI-1640+HS or AS in the presence or absence of a chemoattractant. 0.5 ml of RPMI-1640+HS or AS serum containing between 2-10×10^5 mononuclear phagocytes was added to the upper chamber of the inserts and the inserts were placed in a humidified CO2 incubator at 37° C. After 24 h the medium in the lower chamber was recovered and its cell content assayed using either a Coulter counter or a hemocytometer. […] Cell counts reported are the average number of cells recovered from the medium in the lower compartment of chemotaxis chambers. Over 90% of the cells in the lower chamber were identified as monocytes based on their morphology, their capacity to phagocytose IgG coated sheep red cells, and their staining with fluorescein-conjugated anti α,β monoclonal antibody (Oncogene Sciences, Uniondale, N.Y.). Unless otherwise indicated, all values are the average of duplicate samples run in parallel in a representative experiment. Each experiment was repeated at least three times with similar results.

[6] = tested on: PMNs; assay: PMN migration through Matrigel or Matrigel/tenascin coated filters; settings: for Inhibition of chemoattractant-stimulated PMN migration: Matrigel-coated filters, depending on chemoattractant, human tenascin 5 μg
Method: Polymorphonuclear leukocytes (PMN), were prepared as described (7) from heparinized human blood by sedimentation on Ficoll-Hypaque gradients. Contaminating red blood cells were removed by hypotonic lysis. The purity of PMN isolated by this method was >95% as determined by Wright-Giemsa staining.
as §4
PMN: 250 μl of PBS [supplemented with 5.5 mM glucose and 0.1% human serum albumin (HSA) (PBSG-HSA)] containing 1×10^6 PMNs was placed in the upper compartment of each insert. 250 μl of PBSG-HSA with or without chemoattractant, as indicated, was added to the bottom compartment. The inserts were incubated for about 4 h at 37° C. in a humidified atmosphere containing 95% air/5% CO2. […] The medium in the lower compartment was collected and its content of PMN determined using a Coulter Counter, as described in Example 1.

[7] = tested on: PMNs; assay: PMN migration through fibrin gels with anti-integrin antibodies or synthetic peptides; settings: PMNs incubated with antibody (2 μg/ml) or peptide (1 mg/ml); fMLP 10^−7M, 6 hrs
Method: Fibrin gels were formed on filters of cell culture inserts as described in Experimental Peocedures and fMLP (10^−7M) or LTB4 (10^−7M) was added to the medium in the lower chamber. FIG. 10A—10^6 PMNs were pre-incubated in medium containing antibodies against rat or human β1 integrins, or antibodies against the α5 subunit of human α5β1 integrin, or against the human β2 integrin complement receptor 3 (CR3), or against the human β2 integrin p150/95, or against human β3 integrins for 15 min at 4° C. PMNs were placed in the upper chamber of cell culture inserts in the same medium and the inserts were incubated for 6 hrs at 37° C., at which time the number of cells in the lower chamber was determined using a Coulter Counter. […] The mixture was added to the upper chamber of cell culture inserts and the inserts were incubated for 6 hrs at 37° C., at which time the number of cells in the lower chamber was counted as in FIG. 10A.
Fibrin gels: 1 Unit of thrombin (a gift from Dr. John Fenton, Albany Medical College, Albany, N.Y.), in 5 μl of PBS was added first to each insert. […] The mixture was incubated at 37° C. for 5 min to allow fibrin gel formation (determined by visual inspection). […] The fibrin gels formed were about 1 mm thick as measured under a dissecting microscope. […]

[8] = tested on: monocytes; assay: Monocyte migration through collagen I coated inserts; settings: tenascin added to collagen I
Method: as §3
Cell culture inserts containing polyethylene terephthalate filters, 8-μm pore size (Becton-Dickinson), were overlaid with 0.1 ml of Matrigel (20-25 μg protein/filter) (Collaborative Research, Bedford, Mass.), and incubated at room temperature until they dried. These Matrigel-coated filters were washed with phosphate buffered saline containing 1.0 mM Mg^2+ and 1.0 mM Ca^2+ (PBS). 0.1 ml of a PBS solution (pH 7.2) containing the indicated amount of purified chick brain tenascin was added to some of the inserts. The filters were incubated at room temperature until they dried. […]

[9] = tested on: PMN or monocytes; assay: Adhesion of PMN or monocytes to tenascin-impregnated Matrigel
[10] = added in combination in bottom compartment, 6 hr

## CSCC[C@H](NC=O)C(=O)N[C@@H](CC(C)C)C(=O)N[C@@H](Cc1ccccc1)C(=O)O [fMLP, formyl-methionyl-leucyl-phenylalanine]
[1]; 20% human serum in upper and lower compartments
  Effect of serum on PMN migration through fibrin gels in response to the chemoattractant: nor did the presence of serum promote
[1]; [10]
  Effect on PMN migration through fibrin gels in response to IL-8: reduced
  Effect on PMN migration through fibrin gels in response to LTB4: reduced
[1]; chemoattractant in lower compartment, zymosan-activated human plasma 2-10%
  PMN migration through fibrin gels (in words): not
[2]
  PMN migration through gels of Matrigel or collagen IV: stimulated PMN migration
[3]
  PMN migration through filters with adsorbed fibrinogen or fibronectin: promoted PMN migration
[4]
  PMNs forming zones of adhesion that excluded 10 kDa Rh-PEG: about 50%
[5]; Matrigel alone
  Cultured monocytes that migrated through Matrigel-coated inserts: ~15%
  Freshly isolated human monocytes that migrated through Matrigel-coated inserts: About 20%
[6]; Matrigel alone
  PMNs that migrated through Matrigel-coated inserts: ~10%

## GRGDSP
[7]
  PMN migration through fibrin gels in response to fMLP: migrated through fibrin gels

## chick brain tenascin: tenascin purified from 14-day embryonic chick brains
[5]
  Inhibition of chemoattractant-stimulated monocyte migration: 65-80%
[5]; amount added to Matrigel-coated insert, cultured monocytes, 24 h
  Amount causing half maximal inhibition of TNF-stimulated monocyte migration: about 0.75 μg
[5]; tenascin added to Matrigel
  Effect on monocyte migration through Matrigel in response to TNF, fMLP or LTB4: significantly reduced
  Effect on monocytes that migrated in the absence of chemoattractant: no significant effect
[6]
  Inhibition of chemoattractant-stimulated PMN migration: 65-80%
[6]; tenascin added to Matrigel
  Effect on PMN migration through Matrigel in response to TNF, fMLP or LTB4: significantly reduced
  Effect on PMN that migrated across Matrigel in the absence of chemoattractant: further reduced
[8]
  Reduction of TNF- or LTB4-stimulated monocyte migration through collagen I coated inserts: at least 60%
[9]
  Number of chemoattractant-stimulated PMN or monocytes adhered to tenascin-impregnated Matrigel over Matrigel alone: no increase

## human tenascin: tenascin obtained from cultured human glioma cells, from GIBCO-BRL
[5]
  Inhibition of chemoattractant-stimulated monocyte migration: at least 50%
[6]
  Inhibition of chemoattractant-stimulated PMN migration: at least 50%
